Patent US12637464B2, “Tetracyclic compounds for treating brain disorders” (The Regents of the University of California, priority 2021, dated 2026)

Experiments:
5-HT2 receptors = test: Traditional GPCR binding and functional assays (radioligand binding, IP1, β-arrestin); format: cell-based, human; conditions: FIG. 3B
Experimental: Radioligand Binding Assays (5-HT2AR and 5-HT2CR). The 5-HT2AR and 5-HT2CR competitive radioligand binding assays were performed at Epics Therapeutics S.A. (Belgium, FAST-0505B) using conventional methods. Briefly, competition binding was performed in duplicate in the wells of a 96-well plate (Master Block, Greiner, 786201) containing binding buffer, membrane extracts, radiotracer [^3H]-DOI and test compound. Nonspecific binding was determined by co-incubation with 200-fold excess of cold competitor DOI. The samples were incubated in a final volume of 0.1 mL at a temperature and for a duration optimized for either the 5-HT2AR or 5-HT2CR and then filtered over filter plates. […] The plates were incubated for 15 min on an orbital shaker and then counted with a TopCount™ for 1 min/well. […]
IP1 Assay (5-HT2AR and 5-HT2CR). […] After addition of the lysis buffer containing IP1-d2 and anti-IP1 cryptate detection reagents, plates were incubated for 1 h at room temperature and fluorescence ratios were measured according to the manufacturer's specifications using the HTRF kit. […]
β-Arrestin Activation (PathHunter®). […] PK and EA are then expressed as fusion proteins in U2OS cells, with PK fused to the GPCR of interest, and EA fused to β-Arrestin. […]
Serotonin 5-HT2A In Vitro Radioligand Binding Competition Assay. […] Nonspecific binding is determined by co-incubation with 200-fold excess of cold competitor. […]

C57BL/6J mice [1] = test: Head-twitch response (HTR) assay; format: in vivo, mouse
Experimental: Head-Twitch Response Assay. The HTR assay was performed using equal numbers of male and female C57BL/6J mice. The mice were obtained from The Jackson Laboratory (Sacramento, CA) and were approximately 8-12 weeks old at the time of the experiments. After compound administration, animals were placed into an empty arena (40 cm×40 cm) and filmed for 20 min. The arena was cleaned with 70% ethanol between trials. Animals were given a one-week washout period before being tested again. Animals were tested a maximum of 4 times. All drug treatments were randomized and no animal received the same drug and dose twice. For the blocking experiments, animals were administered (+)-JRT (1 mg/kg) or vehicle (saline) via IP injection and placed in an empty cage for 15 min. Animals were then administered LSD (0.2 mg/kg, IP), placed in the test arena, and filmed for 20 min. Videos were scored later by two blinded observers, and the results were averaged (Pearson correlation coefficient>0.9).

C57BL/6J mice [2] = test: Amphetamine induced locomotion; format: in vivo, mouse; conditions: pretreatment 1 mg/kg
Experimental: Amphetamine Induced Locomotion. The amphetamine-induced hyperlocomotion assay was performed using male and female C57BL/6J mice that were approximately 8 weeks old at the time of the experiments. Animals were first placed in the test arena (40 cm×40 cm) for 15 min to obtain a basal reading of locomotion and habituate them to the testing arena. Next, animals were administered (+)-JRT (1 mg/kg) or VEH (2.5 mL/kg, i.p) and placed back in the test arena. After 15 min, the animals were administered D-amphetamine (3 mg/kg) or VEH (2.5 mL/kg) and placed back in the test arena for 60 minutes. Locomotion during the entire experiment was quantified using ANYmaze Video Tracking System, version 7.07 (Stoelting Co.).

serotonin receptors = test: Radioligand binding selectivity panel (Eurofins Discovery); conditions: FIG. 3A; binding profile compared to (+)-LSD

## CCN(CC)C(=O)[C@@H]1C=C2c3cccc4ccn(c34)C[C@H]2N(C)C1 [(+)-JRT]
5-HT2 receptors
  agonism of 5-HT2 receptors: potent agonist of 5-HT2 receptors
C57BL/6J mice [1]; (+)-JRT 1 mg/kg pretreatment, LSD 0.2 mg/kg
  HTR induced by LSD (antipsychotic properties): antagonizing a HTR induced by LSD
C57BL/6J mice [1]; male and female mice, agonist mode
  hallucinogenic potential (mouse head-twitch response, agonist mode): low hallucinogenic potential
C57BL/6J mice [2]
  AMPH-induced hyperlocomotion, female mice: can block
Serotonin receptors
  receptor selectivity (binding profile): highly selective for serotonin receptors
